ChEMBL document CHEMBL1201862, “PubChem BioAssay data set” (2004)
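A five-concentration, 48-hour dose response in 96-well plates underlies each endpoint, interpolated linearly between surrounding concentrations. GI50 marks 50% less growth.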 Activity calls are given as the source filed them. Cut-off read from the data, not from the text of the source: active = GI50 up to about 1.1 µM and inactive = higher.

Key:
Test in all cases: DTP human tumour cell line panel, 48 h
Hs-578T = test system: Hs-578T
OVCAR-3 = test system: OVCAR-3
HCC 2998 = test system: HCC 2998
SN12C = test system: SN12C
BT-549 = test system: BT-549
MOLT-4 = test system: MOLT-4
NCI-H226 = test system: NCI-H226
MCF7 = test system: MCF7
OVCAR-4 = test system: OVCAR-4
A549 = test system: A549
K562 = test system: K562
TK-10 = test system: TK-10
PC-3 = test system: PC-3
SF-539 = test system: SF-539
SW-620 = test system: SW-620
HCT-15 = test system: HCT-15
A498 = test system: A498
HL-60 = test system: HL-60
CCRF-CEM = test system: CCRF-CEM
SK-MEL-2 = test system: SK-MEL-2
EKVX = test system: EKVX
SK-OV-3 = test system: SK-OV-3
RXF 393 = test system: RXF 393
HOP-92 = test system: HOP-92
MDA-N = test system: MDA-N
Malme-3M = test system: Malme-3M
HT-29 = test system: HT-29
T47D = test system: T47D
IGROV-1 = test system: IGROV-1
HOP-62 = test system: HOP-62
SNB-75 = test system: SNB-75
COLO 205 = test system: COLO 205
RPMI-8226 = test system: RPMI-8226
786-0 = test system: 786-0
M14 = test system: M14
MDA-MB-435 = test system: MDA-MB-435
SK-MEL-28 = test system: SK-MEL-28
UO-31 = test system: UO-31
U-251 = test system: U-251
LOX IMVI = test system: LOX IMVI
NCI-H522 = test system: NCI-H522
OVCAR-5 = test system: OVCAR-5
OVCAR-8 = test system: OVCAR-8
SNB-19 = test system: SNB-19
DU-145 = test system: DU-145
ACHN = test system: ACHN
SK-MEL-5 = test system: SK-MEL-5
MDA-MB-231 = test system: MDA-MB-231
SF-295 = test system: SF-295
HCT-116 = test system: HCT-116
KM12 = test system: KM12
UACC-257 = test system: UACC-257
NCI/ADR-RES = test system: NCI/ADR-RES
NCI-H23 = test system: NCI-H23
NCI-H460 = test system: NCI-H460
CAKI-1 = test system: CAKI-1
SF-268 = test system: SF-268
UACC-62 = test system: UACC-62

## CN(C)/N=C/c1cn(C)c(=O)n(C)c1=O
Hs-578T
  GI50: > 100 µM (inactive)
OVCAR-3
  GI50: > 100 µM (inactive)
HCC 2998
  GI50: > 100 µM (inactive)
SN12C
  GI50: > 100 µM (inactive)
BT-549
  GI50: > 100 µM (inactive)
MOLT-4
  GI50: > 100 µM (inactive)
NCI-H226
  GI50: > 100 µM (inactive)
MCF7
  GI50: > 100 µM (inactive)
OVCAR-4
  GI50: > 100 µM (inactive)
A549
  GI50: > 100 µM (inactive)
K562
  GI50: > 100 µM (inactive)
TK-10
  GI50: > 100 µM (inactive)
PC-3
  GI50: > 100 µM (inactive)
SF-539
  GI50: > 100 µM (inactive)
SW-620
  GI50: > 100 µM (inactive)
HCT-15
  GI50: > 100 µM
A498
  GI50: > 100 µM (inactive)
HL-60
  GI50: > 100 µM (inactive)
CCRF-CEM
  GI50: > 100 µM (inactive)
SK-MEL-2
  GI50: > 100 µM (inactive)
EKVX
  GI50: > 100 µM (inactive)
SK-OV-3
  GI50: > 100 µM (inactive)
RXF 393
  GI50: > 100 µM (inactive)
HOP-92
  GI50: > 100 µM (inactive)
MDA-N
  GI50: > 100 µM (inactive)
Malme-3M
  GI50: > 100 µM (inactive)
HT-29
  GI50: > 100 µM (inactive)
T47D
  GI50: > 100 µM (inactive)
IGROV-1
  GI50: > 100 µM (inactive)
HOP-62
  GI50: > 100 µM (inactive)
SNB-75
  GI50: 35.4 µM (inactive)
COLO 205
  GI50: > 100 µM (inactive)
RPMI-8226
  GI50: > 100 µM (inactive)
786-0
  GI50: > 100 µM (inactive)
M14
  GI50: > 100 µM (inactive)
MDA-MB-435
  GI50: > 100 µM (inactive)
SK-MEL-28
  GI50: > 100 µM (inactive)
UO-31
  GI50: > 100 µM (inactive)
U-251
  GI50: > 100 µM (inactive)
LOX IMVI
  GI50: > 100 µM (inactive)
NCI-H522
  GI50: > 100 µM (inactive)
OVCAR-5
  GI50: > 100 µM (inactive)
OVCAR-8
  GI50: > 100 µM (inactive)
SNB-19
  GI50: > 100 µM (inactive)
DU-145
  GI50: > 100 µM (inactive)
ACHN
  GI50: > 100 µM (inactive)
SK-MEL-5
  GI50: > 100 µM (inactive)
MDA-MB-231
  GI50: > 100 µM (inactive)
SF-295
  GI50: > 100 µM (inactive)
HCT-116
  GI50: > 100 µM (inactive)
KM12
  GI50: > 100 µM (inactive)
UACC-257
  GI50: > 100 µM (inactive)
NCI/ADR-RES
  GI50: > 100 µM (inactive)
NCI-H23
  GI50: > 100 µM (inactive)
NCI-H460
  GI50: > 100 µM (inactive)
CAKI-1
  GI50: > 100 µM (inactive)
SF-268
  GI50: > 100 µM (inactive)
UACC-62
  GI50: > 100 µM (inactive)

## O=C(c1ccc(Cl)cc1)N1N=C(c2ccc(Cl)cc2)CC1(O)c1cc(F)c(Cl)cc1Cl (stereo unspecified)
Hs-578T
  GI50: 39 µM (inactive)
OVCAR-3
  GI50: 21.8 µM (inactive)
HCC 2998
  GI50: 15.5 µM (inactive)
SN12C
  GI50: 14.5 µM (inactive)
BT-549
  GI50: 62.2 µM (inactive)
MOLT-4
  GI50: 9.25 µM (inactive)
NCI-H226
  GI50: 50.6 µM (inactive)
MCF7
  GI50: 7.14 µM (inactive)
OVCAR-4
  GI50: 12.8 µM (inactive)
A549
  GI50: 19.6 µM (inactive)
K562
  GI50: 7.24 µM (inactive)
TK-10
  GI50: 52.7 µM (inactive)
PC-3
  GI50: 10.4 µM (inactive)
SF-539
  GI50: 69.3 µM (inactive)
SW-620
  GI50: 17.4 µM (inactive)
HCT-15
  GI50: 15.5 µM
A498
  GI50: 13.6 µM (inactive)
HL-60
  GI50: 21.2 µM (inactive)
CCRF-CEM
  GI50: 18.7 µM (inactive)
SK-MEL-2
  GI50: 17 µM (inactive)
EKVX
  GI50: 8.59 µM (inactive)
SK-OV-3
  GI50: 62.4 µM (inactive)
RXF 393
  GI50: 23.9 µM (inactive)
HOP-92
  GI50: 11.6 µM (inactive)
MDA-N
  GI50: 13.6 µM (inactive)
Malme-3M
  GI50: 30.6 µM (inactive)
HT-29
  GI50: 8.95 µM (inactive)
T47D
  GI50: 9.95 µM (inactive)
IGROV-1
  GI50: 17.9 µM (inactive)
HOP-62
  GI50: 32.1 µM (inactive)
SNB-75
  GI50: 10 µM (inactive)
COLO 205
  GI50: 18.4 µM (inactive)
RPMI-8226
  GI50: 8.22 µM (inactive)
786-0
  GI50: 18.9 µM (inactive)
M14
  GI50: 28.7 µM (inactive)
MDA-MB-435
  GI50: 16.7 µM (inactive)
SK-MEL-28
  GI50: 44.3 µM (inactive)
UO-31
  GI50: 9.06 µM (inactive)
U-251
  GI50: 15.5 µM (inactive)
LOX IMVI
  GI50: 15.2 µM (inactive)
NCI-H522
  GI50: 12.9 µM (inactive)
OVCAR-5
  GI50: 28.2 µM (inactive)
OVCAR-8
  GI50: 21.3 µM (inactive)
SNB-19
  GI50: 14.6 µM (inactive)
DU-145
  GI50: 27.3 µM (inactive)
ACHN
  GI50: 21.3 µM (inactive)
SK-MEL-5
  GI50: 68.2 µM (inactive)
MDA-MB-231
  GI50: 34.2 µM (inactive)
SF-295
  GI50: 20.6 µM (inactive)
HCT-116
  GI50: 5.66 µM (inactive)
KM12
  GI50: 6.97 µM (inactive)
UACC-257
  GI50: 25.7 µM (inactive)
NCI/ADR-RES
  GI50: 18.4 µM (inactive)
NCI-H23
  GI50: 12.2 µM (inactive)
NCI-H460
  GI50: 21.7 µM (inactive)
CAKI-1
  GI50: 13.8 µM (inactive)
SF-268
  GI50: 47.4 µM (inactive)
UACC-62
  GI50: 21.5 µM (inactive)
